Test results: patent publication US4587342A, “2,4-diamino-(substituted-benzopyran(quinolyl,isoquinoly)methyl)pyrimidine s useful as antibacterials” (priority 1980, dated 1986)
In brackets after ≈: the same amount, converted by molar mass.

Tested on: Staph. aureus
Assay: MIC vs Staph. aureus (Table 2)
Format: cell-based
Details: Staphylococcus aureus, strain not given
Description: The compounds of the present invention were subjected to standard tests in order to determine the minimum inhibitory concentration in μg/ml needed to inhibit a range of bacterial microorganisms in-vitro.

Row | SMILES | MIC
1 | COc1cc(Cc2cnc(N)nc2N)c2cccnc2c1OC [Compound 24, 2,4-Diamino-5-(7,8-dimethoxy-5-quinolylmethyl)pyrimidine] | 0.1 µg/mL (≈ 0.321 µM)
2 | CCCc1cc(Cc2cnc(N)nc2N)c2cccnc2c1OC [Compound 20, 2,4-Diamino-5-(8-methoxy-7-propyl-5-quinolylmethyl)-pyrimidine] | 0.05 µg/mL (≈ 0.155 µM)
3 | C=CCc1cc(Cc2cnc(N)nc2N)c2cccnc2c1OCCOC [Compound 27, 2,4-Diamino-5-(7-allyl-8-(2-methoxyethoxy)-5-quinolylmethyl)pyrimidine] | 0.1 µg/mL (≈ 0.274 µM)
4 | CCOc1cc(Cc2cnc(N)nc2N)c2cccnc2c1N [Compound 26, 2,4-Diamino-5-(8-amino-7-ethoxy-5-quinolylmethyl)pyrimidine] | 0.05 µg/mL (≈ 0.161 µM)
5 | C=CCc1cc(Cc2cnc(N)nc2N)c2ccc(C)nc2c1O [Compound 13, 5-(7-Allyl-8-hydroxy-2-methyl-5-quinolylmethyl)-2,4-diaminopyrimidine] | 0.1 µg/mL (≈ 0.311 µM)
6 | C=CCc1cc(Cc2cnc(N)nc2N)c2ccc(C)nc2c1OC [Compound 16, 5-(7-Allyl-8-methoxy-2-methyl-5-quinolylmethyl)-2,4-diaminopyrimidine] | 0.05 µg/mL (≈ 0.149 µM)
7 | COc1cc(Cc2cnc(N)nc2N)c2c(c1OC)OCCC2 [Compound 2, 2,4-Diamino-5-(3,4-dihydro-7,8-dimethoxy-2 --H--1-benzopyran-5-yl) pyrimidine] | 0.5 µg/mL (≈ 1.58 µM)

Tested on: Salmonella dublin
Assay: not given
Details: even at 40 mg/kg/day; cited from earlier work

Row | SMILES | effect on mortality, SDZ alone
8 | Nc1ccc(S(=O)(=O)Nc2ncccn2)cc1 [SDZ] | no effect on mortality in this disease model
